Experimental data taken from patent EP0080940B1, “Derivatives of 2-phenyl-morpholine and medical compositions” (LABORATOIRE L. LAFON Société anonyme dite:, priority 1981, dated 1983).

What was measured:
Assay type in all cases: in vivo
[1] = system: rats; test: Interaction with amphetamine; conditions: rat, 8 mg/kg et 32 mg/kg i.p., amphétamine 2 mg/kg i.p.
Method: L'amphétamine (2 mg/kg) est injectée par voie intrapéritonéale à des lots de 12 rats, une demi-heure après l'administration de CRL 40914.
(§1) On a résumé ci-après les résultats des essais qui ont été entrepris chez l'animal avec le CRL 40915, les modalités opératoires étant celles données ci-dessus pour le CR L 40914.

[2] = system: souris; test: Interaction with yohimbine, temperature; conditions: 1 mg/kg et 16 mg/kg de CRL 40914, yohimbine 0,5 mg/kg i.p. une demi-heure avant
Method: Des lots de 12 souris reçoivent une injection intrapéritonéale de 0,5 mg/kg de yohimbine, une demi-heure avant l'administration de CRL 40914.

[3] = system: souris; test: Four plates test, traction and electroshock
Source text: Le test est pratiqué sur des lots de 10 souris, une demi-heure après l'administration de CRL 40914.
as §1

[4] = system: souris mâle; test: Acute toxicity by the i.p. route (DL-0, DL-50); conditions: voie i.p.
Method: (§2) On a résumé ci-après les résultats des essais qui ont été entrepris chez l'animal avec le CRL 40914, ce produit étant administré, sauf indications contraires, en solution dans l'eau (à pH 5) par voie intrapéritonéale sous un volume de 20 ml/kg chez la souris mâle et de 5 ml/kg chez le rat mâle.
Chez la souris mâle, la DL-0 (dose maximale non mortelle) par voie i.p. est supérieure à 128 mg/kg.
as §1
Chez la souris mâle, la DL-0 (dose maximale non mortelle) par voie i.p. est supérieure à 256 mg/kg, et la DL-50 par voie i.p. est de l'ordre de 500 mg/kg environ.

[5] = system: souris; test: Interaction with oxotremorine; conditions: oxotrémorine 0,5 mg/kg i.p.
Method: Le CRL 40914 est administré à des lots de 6 souris une demi-heure avant l'injection intrapéritonéale de 0,5 mg/kg d'oxotrémorine.
as §1

[6] = system: souris mâle; test: Action on intergroup aggressiveness
Method: Cet effet pourrait résulter de la sédation qui se manifeste à faible dose (4 mg/kg) et de l'excitation motrice qui se manifeste à forte dose (64 mg/kg).

[7] = system: souris; test: Global behaviour and reactivity, mouse
Method: as §2
(§3) Des lots de 3 animaux sont observés avant, puis 15 min, 30 min, 1 h, 2 h, 3 h et 24 h après l'administration de CRL 40914. On observe ce qui suit:
as §1

[8] = system: rats; test: Search for stereotyped movements; conditions: rat
Method: Des lots de 6 rats reçoivent une injection intrapéritonéale de CRL 40914 ou d'amphétamine puis sont immédiatement placés dans des boîtes de petites dimensions où leur comportement stéréotypé est coté de 0 à 3 toutes les 10 min jusqu'à extinction de l'effet.

[9] = system: rat; test: Global behaviour and reactivity, rat
Method: as §2, §3, §1

[10] = system: souris; test: Asphyxic anoxia (gallamine triethiodide)
Method: Des lots de 10 souris reçoivent le CRL 40914 une demi-heure avant l'administration intrapéritonéale de 32 mg/kg de triiodoéthylate de gallamine (agent curarisant de référence).
as §1

[11] = system: souris; test: Interaction with reserpine; conditions: 4 mg/kg mais surtout 16 mg/kg et 64 mg/kg i.p., 4 h après réserpine 2,5 mg/kg i.p.
Method: Quatre heures après l'injection intrapéritonéale de 2,5 mg/kg de réserpine, des lots de 6 souris reçoivent le CRL 40914.
as §1

[12] = system: souris; test: Action on spontaneous motility (actimeter)
Method: Une demi-heure après avoir reçu le CRL 40914, des souris sont placées en actimètre où leur motilité est enregistrée pendant 30 min.
as §1

[13] = system: homme; test: Clinical use by the oral route; conditions: voie orale, 2 à 3 comprimés ou gélules (10 à 20 mg chacun) par jour
[14] = system: souris; test: Interaction with yohimbine, spontaneous motility; conditions: yohimbine 0,5 mg/kg i.p.
Method: Des lots de 12 souris reçoivent la yohimbine (0,5 mg/kg i.p.) et le CRL 40914 respectivement 60 et 30 min avant d'être placées en actimètre où leur motilité est enregistrée pendant une demi-heure.

[15] = system: souris; test: Interaction with barbital; conditions: barbital sodique 220 mg/kg i.p.
Method: Des lots de 10 souris reçoivent le CRL 40914 une demi-heure avant l'injection intrapéritonéale de 220 mg/kg de barbital sodique.

[16] = system: souris; test: Behavioural despair (immobility in water); conditions: souris en immersion, dès 4 mg/kg i.p.; effet particulièrement net à 64 mg/kg
Source text: Une demi-heure après avoir reçu le CRL 40914 ou la désipramine, des lots de 10 souris sont plongés dans un bécher rempli d'eau sur une hauteur de 6 cm. On note la durée d'immobilité de la souris entre la 2ème et la 6ème min suivant son immersion.

CCN1CCOC(c2ccccc2)C1 (stereo not shown) [CRL 40914, Chlorhydratede 2-phényl-4-éthyl-morpholine]
stéréotypies amphétaminiques [1]: diminue nettement l'intensité des téréotypies amphétaminiques | hypothermie induite par le CRL 40914 après yohimbine [2]: empêche l'apparition de l'hypothermie | effets létaux de l'électrochoc ([3]; 64 mg/kg i.p.): aggrave les effets létaux de l'électrochoc | déficit moteur (traction) ([3]; i.p.): ne provoque pas de déficit moteur majeur | nombre de passages punis (test des quatre plaques) ([3]; i.p., faible dose / forte dose): à faible dose une diminution, et à forte dose une augmentation du nombre de passages punis | DL-0 (dose maximale non mortelle) [4]: > 128 mg/kg | effet hypothermisant de l'oxotrémorine ([5]; 16 mg/kg et 64 mg/kg i.p.): combat l'effet hypothermisant | tremblements dus à l'oxotrémorine ([5]; 64 mg/kg i.p.): diminue l'intensité des tremblements | signes de stimulation cholinergique périphérique provoqués par l'oxotrémorine [5]: laisse inchangés les signes de stimulation cholinergique périphériques | combats (agressivité intergroupe) ([6]; 4 mg/kg): supprime les combats entre les souris de 2 groupes différents | durée de contact entre les souris (agressivité intergroupe) ([6]; 64 mg/kg): diminue la durée de contact entre les souris | mydriase ([7]; 2 mg/kg i.p.): mydriase pendant 1 h | sédation ([7]; 2 mg/kg i.p.): sédation pendant 30 à 60 min | hypothermie ([7]; 2 mg/kg i.p., pendant 1 à 2 h): -3,6 °C | mydriase ([7]; 4 mg/kg i.p.): mydriase pendant 1 heure | sédation ([7]; 4 mg/kg i.p.): sédation pendant 30 à 60 min | hypothermie ([7]; 4 mg/kg i.p., pendant 1 h): -2,2 °C | excitation ([7]; 16 mg/kg i.p.): excitation pendant 30 min suivie d'une hyporéactivité au toucher | lacrymation ([7]; 16 mg/kg i.p.): lacrymation pendant 1 h | mydriase ([7]; 16 mg/kg i.p.): mydriase pendant 1 h | hypothermie ([7]; 16 mg/kg i.p., pendant 2 à 3 h): -2,8 °C | excitation ([7]; 64 mg/kg i.p.): excitation pendant 1 à 2 h avec manifestation de mouvements stéréotypés | mydriase ([7]; 64 mg/kg i.p.): mydriase pendant 1 h | piloérection, salivation et lacrymation ([7]; 64 mg/kg i.p.): piloérection, salivation et lacrymation pendant 1 h | polypnée ([7]; 64 mg/kg i.p.): polypnée pendant 2 h | mouvements stéréotypés ([8]; 32 mg/kg i.p.): ne provoque pas de stéréotypies | mouvements stéréotypés ([8]; 64 mg/kg i.p.): mouvements stéréotypés d'intensité et de durée comparables à ceux observés après administration de 1 mg/kg d'amphétamine | mouvements stéréotypés ([8]; 128 mg/kg i.p.): cet effet est encore plus net | mydriase ([9]; rat, 0,5 mg/kg i.p.): mydriase pendant 1 à 2 h | mydriase ([9]; rat, 2 mg/kg i.p.): mydriase pendant 1 à 2 h | sédation ([9]; rat, 2 mg/kg i.p.): sédation pendant 1 h | mydriase ([9]; rat, 8 mg/kg i.p.): mydriase pendant 2 h | piloérection ([9]; rat, 8 mg/kg i.p.): piloérection pendant 1 à 2 h | sédation ([9]; rat, 8 mg/kg i.p.): sédation pendant 2 h avec diminution de la réactivité au toucher mais augmentation de la réaction de peur | mydriase ([9]; rat, 32 mg/kg i.p.): mydriase pendant plus de 3 h | piloérection, salivation et lacrymation ([9]; rat, 32 mg/kg i.p.): piloérection (pendant 3 h), salivation (pendant 1 h) et lacrymation (pendant 1 h) | réaction de peur ([9]; rat, 32 mg/kg i.p.): augmentation de la réaction de peur pendant 3 h | sédation ([9]; rat, 32 mg/kg i.p.): sédation pendant 3 h avec diminution de la réactivité au toucher et du tonus musculaire | apparition des convulsions et de la mort (anoxie asphyxique) ([10]; 1 mg/kg, 4 mg/kg et 16 mg/kg i.p., triiodoéthylate de gallamine 32 mg/kg i.p.): retard d'apparition des convulsions et, à un degré moindre, de la mort | apparition des convulsions et de la mort (anoxie asphyxique) ([10]; dose plus élevée (above 16 mg/kg) i.p.): cet effet disparaît | hypothermie et ptosis réserpiniques [11]: s'oppose à l'hypothermie et au ptosis réserpinique | activité motrice spontanée ([12]; 64 mg/kg i.p.): hyperactivité nette | activité motrice spontanée ([12]; dès 0,125 mg/kg i.p., maximum entre 0,5 mg/kg et 16 mg/kg): diminution de l'activité motrice spontanée | résultats cliniques (agent antidépresseur du SNC) [13]: d'excellents résultats | hypomotilité produite par le CRL 40914 après yohimbine ([14]; CRL 40914 1 mg/kg): s'oppose à l'hypomotilité | hypomotilité produite par le CRL 40914 après yohimbine ([14]; CRL 40914 16 mg/kg): ne modifie pas celle provoquée par 16 mg/kg | durée du sommeil induit par le barbital ([15]; 4 mg/kg et 16 mg/kg i.p.): semble prolonger modérément la durée du sommeil induit par le barbital | durée du sommeil induit par le barbital ([15]; 64 mg/kg i.p.): antagonisme net | durée d'immobilité [16]: diminue la durée d'immobilité
